Measured values published in patent publication US20220401331A1, “PERSONAL CLEANSING COMPOSITIONS, METHODS AND USES” (The Procter & Gamble Company, priority 2021, published 2022).

Assay: Observations of appearance, structure and phase separation (Centrifuge Test, standing)
Format: physicochemical
Conditions: gel structure, phase separation

Substance: non-ethoxylated sodium tridecyl sulfate [ST0S]
- observations: did not form lamellar phase
